Measured values from patent US20060160070A1, “Association-based epitome design” (Microsoft Corporation, priority 2004, published 2006).

How the values were obtained:
[1] = target: T1, HLA A*0101 (Homo sapiens, UniProt P04439, A114D/A174V/A182V/D101N/D185E/E176A/E190D/L180R/Q94H/R68K/S129P/T187R/V100A/V91M/W191G); test: ITOPIA peptide binding assay; details: 1.11×10^−4M of peptide
T1 construct: purchased
Experimental: (§1) Peptide binding, off-rate and affinity were measured according to the protocols described in the ITOPIA Epitope Discovery System Customer Guide. To conduct the experiments, ninety-six (96) micro-titer plates coated with MHC molecules representing the HLA alleles listed in Table 9 were used to identify candidate peptides. Determinations were performed in duplicate using an ELISA plate reader. The peptide binding assay used measures the ability of individual peptides to bind to the HLA molecules under standardized optimal binding conditions. The assay was performed for all the test peptides across the selected HLA alleles. The test peptides identified as “binders” were characterized further in terms of affinity and dissociation experiments. The off-rate assay used evaluates the dissociation of previously bound peptide at defined time points (expressed as the t1/2 value). The affinity assay used measures the relative binding affinities for the MHC molecules determined by incubating candidate peptides identified in the initial peptide binding assay at increasing concentrations (expressed as quantity of peptide needed to achieve 50% binding or ED50 value).
(§2) The binding of the test peptides (Table 8) to the HLA molecules (Table 9) was performed at a concentration of 1.11×10^−4M of peptide under optimal, standardized test conditions. A control peptide was run in parallel on the same plate and at the same concentration as the test peptides. […] The level of binding is expressed as a percent of positive control peptide binding for each allele.

[2] = target: T2, HLA A*0201 (Homo sapiens, UniProt P04439, D140Y/D185E/D98H/E176V/E277Q/G131W/G231S/I119V/I121R/I166T/I218V/L300P/L318F/N151K/N90K/P208A/P217A/Q86G/Q94H/R138H/R169H/T345S); test: ITOPIA peptide binding assay; details: 1.11×10^−4M of peptide
Experimental: as §1, §2

[3] = target: T3, HLA A*0301 (Homo sapiens, UniProt P04439); test: ITOPIA peptide binding assay; details: 1.11×10^−4M of peptide
T3 construct: purchased
Experimental: as §1, §2

[4] = target: T4, HLA A*1101 (Homo sapiens, UniProt P04439, A114D/D185E/E176A/F33Y/L180Q/S129P/T187R); test: ITOPIA peptide binding assay; details: 1.11×10^−4M of peptide
T4 construct: purchased
Experimental: as §1, §2

[5] = target: T5, HLA A*2402 (Homo sapiens, UniProt P04439, D101N/D140Y/D185E/E176V/E190D/F33S/G103R/G107R/I119L/I121M/I306V/K335N/L105A/L180Q/L300P/N151K/N90K/Q86E/Q94H/R106L/R138H/R89G/T104I/T345S/V100E/W191G/Y123F); test: ITOPIA peptide binding assay; details: 1.11×10^−4M of peptide
Experimental: as §1, §2

[6] = target: T6, HLA B*0702 (Homo sapiens, UniProt P01889); test: ITOPIA peptide binding assay; details: 1.11×10^−4M of peptide
T6 construct: purchased
Experimental: as §1, §2

[7] = target: T7, HLA B*0801 (Homo sapiens, UniProt P01889, A93T/A95T/D138N/E176V/E187T/K202T/Q94N/R180D/S35A/V36M/Y33D/Y91F); test: ITOPIA peptide binding assay; details: 1.11×10^−4M of peptide
T7 construct: purchased
Experimental: as §1, §2

[8] = target: T8, HLA B*1501 (Homo sapiens, UniProt P01889, A329T/A93T/A95T/C349S/D201E/D98Y/E187L/E204Q/E69M/E70A/K202T/N87E/Q94N/R155S/R180W/S121R/S35A/S48A/V306I/V36M/Y140S/Y91S); test: ITOPIA peptide binding assay; details: 1.11×10^−4M of peptide
T8 construct: purchased
Experimental: as §1, §2

[9] = target: T2, HLA A*0201; test: ITOPIA off-rate assay; format: binding; details: 37° C., one-phase exponential decay
Experimental: as §1
(§3) The peptides initially identified as binders were evaluated for stability based on their ability to remain bound to MHC molecules at 37° C. at time points 0, 0.5, 1, 1.5, 2, 4, 6 and 8 hours. […] The values obtained for each time point (in duplicate) are expressed (Table 11) as a percentage of the positive control. To calculate the t1/2 and goodness-of-fit, as measured by r^2, for each peptide, a one-phase exponential decay curve, with a plateau given equal to 0, was generated using […] PRISM software.

[10] = target: T5, HLA A*2402; test: ITOPIA off-rate assay; format: binding; details: 37° C., one-phase exponential decay
Experimental: as §1, §3

[11] = target: T1, HLA A*0101; test: Multi-parametric analysis iScore; format: binding; parameters: scale not given here; details: index integrating t1/2 and ED50
Experimental: (§4) Multi-parametric analysis was performed to integrate the half-life (t½) and ED50 parameters in an index (iScore). The iScore (Table 13) reflects the capability of a peptide to reconstitute with MHC molecules in a stable complex, defining its overall level of binding.

[12] = target: T2, HLA A*0201; test: Multi-parametric analysis iScore; format: binding; parameters: scale not given here; details: index integrating t1/2 and ED50
Experimental: as §4

[13] = target: T3, HLA A*0301; test: Multi-parametric analysis iScore; format: binding; parameters: scale not given here; details: index integrating t1/2 and ED50
Experimental: as §4

[14] = target: T4, HLA A*1101; test: Multi-parametric analysis iScore; format: binding; parameters: scale not given here; details: index integrating t1/2 and ED50
Experimental: as §4

[15] = target: T5, HLA A*2402; test: Multi-parametric analysis iScore; format: binding; parameters: scale not given here; details: index integrating t1/2 and ED50
Experimental: as §4

[16] = target: T6, HLA B*0702; test: Multi-parametric analysis iScore; format: binding; parameters: scale not given here; details: index integrating t1/2 and ED50
Experimental: as §4

[17] = target: T7, HLA B*0801; test: Multi-parametric analysis iScore; format: binding; parameters: scale not given here; details: index integrating t1/2 and ED50
Experimental: as §4

[18] = target: T8, HLA B*1501; test: Multi-parametric analysis iScore; format: binding; parameters: scale not given here; details: index integrating t1/2 and ED50
Experimental: as §4

[19] = target: T8, HLA B*1501; test: ITOPIA off-rate assay; format: binding; details: 37° C., one-phase exponential decay
Experimental: as §1, §3

[20] = target: T6, HLA B*0702; test: ITOPIA off-rate assay; format: binding; details: 37° C., one-phase exponential decay
Experimental: as §1, §3

[21] = target: T7, HLA B*0801; test: ITOPIA off-rate assay; format: binding; details: 37° C., one-phase exponential decay
Experimental: as §1, §3

Sequence | level of binding, percent of positive control peptide binding [1] | level of binding, percent of positive control peptide binding [2] | level of binding, percent of positive control peptide binding [3] | level of binding, percent of positive control peptide binding [4] | level of binding, percent of positive control peptide binding [5] | level of binding, percent of positive control peptide binding [6] | level of binding, percent of positive control peptide binding [7] | level of binding, percent of positive control peptide binding [8] | A*0201 t1/2 [9] | A*2402 t1/2 [10] | iScore [11] | iScore [12] | iScore [13] | iScore [14] | iScore [15] | iScore [16] | iScore [17] | iScore [18] | B*1501 t1/2 [19] | also measured
ALFYKLDVI [compound 158] | 1% of positive control | 62% of positive control | 14% of positive control | 1% of positive control | 99% of positive control | 3% of positive control | 5% of positive control | 3% of positive control | 5.5 h | 1.1 h | 0 | 0.460 | 0 | 0 | 0.339 | 0 | 0 | 0 |  | 
CSSNITGLI [compound 154] | 5% of positive control | 44% of positive control | 0% of positive control | 1% of positive control | 29% of positive control | 5% of positive control | 6% of positive control | 40% of positive control | 0.4 h | 1.5 h | 0 | 0.114 | 0 | 0 | 0.038 | 0 | 0 | 0.112 | 3.8 h | 
CSSNITGLL [compound 69] | 4% of positive control | 37% of positive control | 0% of positive control | 1% of positive control | 26% of positive control | 5% of positive control | 4% of positive control | 30% of positive control | 0.3 h | 1.1 h | 0 | 0.081 | 0 | 0 | 0.016 | 0 | 0 | 0.067 | 3.1 h | 
FPRIWLHGL [compound 152] | 0% of positive control | 9% of positive control | 0% of positive control | 0% of positive control | 41% of positive control | 132% of positive control | 39% of positive control | 3% of positive control |  |  | 0 | 0 | 0 | 0 | 0 | 0.421 | 0.189 | 0 |  | B*0702 t1/2 [20]: 1.1 h; B*0801 t1/2 [21]: 1.8 h
